Compared with `Cc1cc(F)ccc1NC(=O)CCC#Cc1cccc(CF)n1`, `Cc1cc(-c2cc(CO)c(=O)n(Cc3ccccc3Cl)n2)ccc1F` is higher in melting point: 122 to 125 °C for the first, 149 to 150 °C for the second.

Compared with `CCCCCCC1CCC(=O)N1c1ccc(Cl)c(NC2=NN(c3c(Cl)cc(Cl)cc3Cl)C(=O)C2)c1` (centres undefined), `O=C1c2ccccc2C(=O)N1Nc1ccc(/C=C/C(c2cc(Cl)c(Cl)c(Cl)c2)C(F)(F)F)cc1` (centres undefined) is lower in melting point: 224 to 227 °C for the first, 187 to 189 °C for the second.

Compared with `CC(C)Cn1c(CNC(=O)OC(C)(C)C)c(-c2ccccc2F)c2cc(C(N)=O)ccc2c1=O`, `CC(C)C(C)(C(=O)O)N1C(=O)c2ccccc2C1=O` (centres undefined) is lower in melting point: 232 to 233 °C for the first, 151 to 152 °C for the second.

Compared with `Nc1cccc(C#Cc2c(F)c(F)nc(F)c2F)c1`, `Cc1c(-c2cc(F)ccc2F)[nH]c(N)c1C#N` is lower in melting point: 172 to 173 °C for the first, 146 to 147 °C for the second.

First: O=Cc1c(F)cccc1N1CCN(Cc2ccccc2)CC1
Second: CNC(=O)c1ccc(N2CCN(Cc3cc4c(c(-c5ccccc5)c3)OC(C)C(=O)N4)CC2)cc1 (centres undefined)
The melting point of the first is lower: 94 to 95 °C for the first, 185 to 189 °C for the second.

First: COC(=O)C(Cc1ccc(OC)c(OC)c1)NNc1ccc(C)c(C)c1 (centres undefined)
Second: COc1cc(CCNC(=O)N(C)O)ccc1OCc1ccccc1
The melting point of the first is higher: 148 to 150 °C for the first, 109 to 111 °C for the second.

Compared with `CC(CCCC(C)(C)OC1CCCCO1)C1CCC2C3CC=C4CC(O)CC(O)C4(C)C3CCC12C` (centres undefined), `CC1CCC2(C)C(=CCC3C2CCC2(C)C3CCC23OCCO3)C1` (centres undefined) is lower in melting point: 130 to 132 °C for the first, 121 to 122 °C for the second.

First: CN1CCCC1=C(C#N)c1ccc(Cl)cc1
Second: Cc1ccc(C2CCN(C(=O)CCC(=O)c3ccc4c(c3)CCNCC4)CC2)cc1
The melting point of the first is lower: 71 to 72 °C for the first, 115 to 116 °C for the second.

First: CC(=O)Sc1ccc(I)cc1
Second: COC(=O)C=C1CCC(c2ccc(O)cc2)CC1 (centres undefined)
The melting point of the first is lower: 56 to 57 °C for the first, 151 to 152 °C for the second.

First: O=S1Cc2ccccc2-c2ccccc21 (centres undefined)
Second: COc1ccc(N(C(=O)CN2C(=O)c3ccccc3C2=O)c2ccccc2)cc1
The melting point of the first is lower: 97 to 100 °C for the first, 192 °C for the second.

Compared with `Cc1nnc(-c2ccc3occ(-c4cccc(Cl)c4)c3c2)o1`, `CN1CCN(c2ncnc3oc(-c4ccc(N)cc4)c(-c4ccc(F)cc4)c23)CC1` is higher in melting point: 145 to 146 °C for the first, 214 to 215 °C for the second.

First: O=C(Nc1ccc(S(=O)(=O)C(F)(F)F)cc1Cl)c1cc(-c2ccc(F)cc2F)cc(C23CC4CC(CC(C4)C2)C3)c1O
Second: Cc1cccc(-n2ncc(-c3ccc(S(C)(=O)=O)cc3)c(-c3ccc(F)cc3)c2=O)c1
The melting point of the first is lower: 177 to 178 °C for the first, 213 to 216 °C for the second.

Compared with `O=Cc1cc(-c2ccccc2)c(=O)n2c1-c1sccc1CC2`, `CCCCc1nc[nH]c(=O)c1Cc1ccc(-c2ccccc2C(=O)O)cc1` is lower in melting point: 213 to 215 °C for the first, 197 to 200 °C for the second.

First: CCOC1=CCC(NC(C)=O)CC1 (centres undefined)
Second: CCCCOc1ccc(S(=O)(=O)N2CCC(O)C2)cc1 (centres undefined)
The melting point of the first is higher: 100 to 102 °C for the first, 83 to 84 °C for the second.

First: N#Cc1ccc(N(CCCCOc2ccc(OS(N)(=O)=O)cc2)n2cnnc2)cc1
Second: CC(=NOCCOc1ccc(CC2SC(=O)NC2=O)cc1)c1ccc(NS(=O)(=O)c2ccccc2)cc1 (centres undefined)
The melting point of the first is lower: 164 to 172 °C for the first, 213 to 215 °C for the second.

Compared with `O=[N+]([O-])c1cc(Cl)c2c(c1)C(F)(C(F)(F)F)C(F)(F)O2` (centres undefined), `Nc1cc(C(F)(F)F)ccc1-c1cc2ccccc2[nH]1` is higher in melting point: 46 to 47 °C for the first, 164 to 166 °C for the second.

First: O=C(c1ccncc1)c1cc(-c2cccnc2)c(N2CCOCC2)s1
Second: COc1ccc(Nc2nccc(-c3ccncc3)n2)cc1
The melting point of the first is lower: 128 °C for the first, 174 to 175 °C for the second.

Compared with `O=C(NC(Cc1ccccc1)C(=O)O)c1ccc(-c2ccc(OCc3ccccc3)cc2)nc1` (centres undefined), `COc1cccc2c1CC(C(=O)NCCOc1ccc(C(=O)O)cc1)N2S(=O)(=O)c1ccc(-c2ccc(F)cc2)cc1` (centres undefined) is lower in melting point: 240 °C for the first, 113 °C for the second.

First: COc1ccc(Nc2ncc3ccc(=O)n(C4CCCC4)c3n2)cn1
Second: COC(=O)/C=C1\CCCCC1n1nc(-c2c(-c3ccccc3)nn3ccccc23)ccc1=O (centres undefined)
The melting point of the first is higher: 181 to 182 °C for the first, 156 to 157 °C for the second.

First: CC1Nc2cc(N(C)C(=O)c3ccc(-c4ccccc4)cc3)ccc2N1C (centres undefined)
Second: CN(O)C(=O)c1ccc(CCCNc2ccc(O)cc2)cc1
The melting point of the first is higher: 213 to 214 °C for the first, 152 to 153 °C for the second.

First: Nc1ccc(CNC(=O)OCc2ccccc2)cc1
Second: CNC(=O)c1cc(C(=O)c2ccccc2)ccc1[N+](=O)[O-]
The melting point of the first is lower: 60 to 64 °C for the first, 138 °C for the second.

First: COC(=O)c1ccc(-c2nc(C)no2)s1
Second: COC(=O)c1ccccc1CS(=O)(=O)N=c1nc2nc(OC)cc(OC)n2s1
The melting point of the first is higher: 154 to 156 °C for the first, 153 to 154 °C for the second.

Compared with `CCN1CCN(NC(=O)c2cc(Cl)c(N)cc2OC)CC1`, `CCOC(=O)c1cn(C2CC2)c2c(Cl)c(F)c(Cl)cc2c1=O` is higher in melting point: 177 to 178 °C for the first, 215 to 217 °C for the second.

First: c1cc(CN2CCCCC2)cc(OCCCNc2nccc3ccccc23)c1
Second: Nc1nc2ccccc2c2c1ncn2CCCCS(=O)(=O)c1ccccc1
The melting point of the first is lower: 103 to 105 °C for the first, 175 to 177 °C for the second.

First: COc1ccc2[nH]c(Br)c(CCNC(=O)C3CC3)c2c1
Second: COc1ccc(C[C@H]2NC(=O)O[C@H]2c2ccc(F)cc2)cc1 (racemic)
The melting point of the first is lower: 82 to 83 °C for the first, 125 to 126 °C for the second.

Compared with `CCc1cc(Oc2cncc3sc(C(N)=O)cc23)ccc1Cl`, `CCOC(=O)c1ccc(OCC)c(-c2ncc(C(=O)OCC)c(=O)[nH]2)c1` is lower in melting point: 185 to 187 °C for the first, 180 to 182 °C for the second.

First: ClCc1coc(/C=C/c2ccccc2)n1
Second: CCOC1CCC(=O)N1S(=O)(=O)c1ccccc1 (centres undefined)
The melting point of the first is lower: 72 to 73 °C for the first, 112 to 113 °C for the second.

Compared with `CCCCCCCCCCNC(=O)c1cc(C(=O)NCCCCCCCCCC)cc(N(CCCC(=O)O)CCCC(=O)O)c1`, `CCCCCCCCCCCCc1cc2ccc(C(=O)OCC)cc2[nH]1` is lower in melting point: 154 to 156 °C for the first, 83 to 86 °C for the second.

Compared with `Fc1ccc2c(c1)CC[C@H](CNCCNc1ncccn1)O2`, `COc1cccc2[nH]cc(/C(C#N)=C/c3cccnc3)c12` is higher in melting point: 103 °C for the first, 177 °C for the second.

First: O=C1c2ccccc2C(=O)N1CCCCN(CCCCN1C(=O)c2ccccc2C1=O)CCOc1cccc2c1SCCC2
Second: Cc1cc(C)cc(C(=O)c2c(C(C)C)c(=O)[nH]c(=O)n2Cc2cc(C)nc(N3C(=O)c4ccccc4C3=O)c2)c1
The melting point of the first is lower: 66 °C for the first, 310 to 311 °C for the second.

First: COc1nc2cc([N+](=O)[O-])c(C)c(C(=O)N(C)CC(=O)OC(C)(C)C)c2nc1OC
Second: Cc1nc(-c2cnc3[nH]cc(C(=O)N[C@@H](C(=O)N4CC(C#N)C4)C4CC4)c3n2)cn1CC(F)(F)F
The melting point of the first is lower: 102 to 105 °C for the first, 255 to 256 °C for the second.

First: CCOCc1nc2c(N)ncc(C)c2n1CCCCNS(C)(=O)=O
Second: NC(CCc1ccccc1CP(=O)(O)O)C(=O)O (centres undefined)
The melting point of the first is lower: 173 to 175 °C for the first, 247 to 249 °C for the second.

Source: a melting point compilation (Tetko et al.; mined from patent text by program, amines drawn as free bases though some values may be those of a salt)
